Test results reported in ChEMBL document CHEMBL1201862, “PubChem BioAssay data set” (2004).
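1) Cells in 96-well plates. 2) Compound, 48 h, 5 concentrations. 3) Linear interpolation between surrounding doses. 4) Unreached endpoint = highest concentration. At the GI50, growth is halved.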 Active and inactive are the calls of the source. Rule as the data show it: active = GI50 up to about 1.1 µM and inactive = higher.

Legend:
Assay in all cases: NCI anticancer screen, dose series, 48 h
OVCAR-5 = tested on: OVCAR-5
HT-29 = tested on: HT-29
SW-620 = tested on: SW-620
SK-MEL-2 = tested on: SK-MEL-2
KM12 = tested on: KM12
PC-3 = tested on: PC-3
SK-MEL-28 = tested on: SK-MEL-28
HCT-116 = tested on: HCT-116
ACHN = tested on: ACHN
MDA-MB-231 = tested on: MDA-MB-231
MCF7 = tested on: MCF7
DU-145 = tested on: DU-145
T47D = tested on: T47D
CCRF-CEM = tested on: CCRF-CEM
HL-60 = tested on: HL-60
HCC 2998 = tested on: HCC 2998
M14 = tested on: M14
Malme-3M = tested on: Malme-3M
IGROV-1 = tested on: IGROV-1
RXF 393 = tested on: RXF 393

Measured: GI50

Cc1ccc([S+]([O-])/C=C(\NC(=O)OCc2ccccc2)C(F)(F)F)cc1 (stereo not given)
inactive: OVCAR-5 52 µM | HT-29 32.1 µM | SW-620 19.3 µM | SK-MEL-2 32.4 µM | KM12 32.9 µM | PC-3 50.4 µM | SK-MEL-28 22.1 µM | HCT-116 45.7 µM | ACHN 17.8 µM | MDA-MB-231 55.2 µM | MCF7 32.2 µM | DU-145 77.3 µM | T47D 39.7 µM | CCRF-CEM 31.6 µM | HL-60 18 µM | HCC 2998 37.5 µM | M14 > 100 µM | Malme-3M 35.2 µM | IGROV-1 45.3 µM | RXF 393 35.5 µM
